Source: US9982005B2, “Macrolides and methods of their preparation and use” (President and Fellows of Harvard College, priority 2013, dated 2018)
In brackets after ≈: the same amount, converted by molar mass. Where two headings read alike, the source gives them in different places.

Experiments:
Format in all cases: cell-based
S. aureus strains = assay: MIC against S. aureus strains (Table M7); settings: for MIC: Staphylococcus aureus
Excerpt: (§1) We have collected MIC data for a total of 50 novel macrolides that this platform has produced against over 21 unique strains of B. subtilis, E. coli, S. aureus, S. pneumoniae, and H. influenzae, including several multidrug-resistant strains, with a special focus on macrolide resistant mechanisms (vide supra). Azithromycin was included as a control macrolide. CLSI standard procedures for broth dilution MIC determination were used. […] These genotypes can be constitutive or inducible. The finding that C4-epi (unnatural) isomers of the “azaketolide” macrolide class have enhanced activities relative to C4 natural isomers is very exciting.

H. influenzae strains = assay: MIC against H. influenzae strains (Table M8); settings: for MIC: Haemophilus influenzae
Excerpt: as §1

E. faecalis strains = assay: MIC against E. faecalis strains (Table M8); settings: for MIC: Enterococcus faecalis, E. faecalis 29212
K. pneumoniae strains = assay: MIC against K. pneumoniae strains (Table M8); settings: for MIC: Klebsiella pneumoniae, K. pneumoniae 10031
S. pneumoniae strains = assay: MIC against S. pneumoniae strains (Tables M7, M8); settings: for MIC: Streptococcus pneumoniae
Excerpt: CLSI standard procedures for broth dilution MIC determination were used. […] These genotypes can be constitutive or inducible.

E. coli strains = assay: MIC against E. coli strains (Table M7); settings: for MIC: Escherichia coli, ATCC25922, E. coli ATCC 25922
Excerpt: as §1

A. baumannii strains = assay: MIC against A. baumannii strains (Table M8); settings: for MIC: Acinetobacter baumannii, BAA747, A. baumannii BAA747-1
[1] = ATCC29213, S. aureus ATCC 29213, read-out: MIC S. aureus (ATCC 29213)
[2] = S. aureus 183, read-out: MIC S. aureus (183)
[3] = S. aureus 506, read-out: MIC S. aureus (506)
[4] = S. aureus 1708, read-out: MIC S. aureus (1708)
[5] = USA300, S. aureus USA300, read-out: MIC S. aureus (USA300)
[6] = H. influenzae 49247, read-out: MIC H. influenzae (49247)
[7] = H. influenzae 49766, read-out: MIC H. influenzae (49766)
[8] = S. pneumoniae 160, read-out: MIC S. pneumonae (160)
[9] = S. pneumoniae 1509, read-out: MIC S. pneumoniae (1509)
[10] = S. pneumoniae 1533, read-out: MIC S. pneumoniae (1533)
[11] = S. pneumoniae 1537, read-out: MIC S. pneumoniae (1537)
[12] = S. pneumoniae 49619, read-out: MIC S. pneumoniae (49619)

| Compound | MIC (S. aureus strains; [1]) | MIC (S. aureus strains; [2]) | MIC (S. aureus strains; [3]) | MIC (S. aureus strains; [4]) | MIC (S. aureus strains; [5]) | MIC (H. influenzae strains; [6]) | MIC (H. influenzae strains; [7]) | MIC (E. faecalis strains) | MIC (K. pneumoniae strains) | MIC (S. pneumoniae strains; [8]) | MIC (S. pneumoniae strains; [9]) | MIC (S. pneumoniae strains; [10]) | MIC (S. pneumoniae strains; [11]) | MIC (S. pneumoniae strains; [12]) | MIC (E. coli strains) | MIC (A. baumannii strains) | further results |
| --- | --- | --- | --- | --- | --- | --- | --- | --- | --- | --- | --- | --- | --- | --- | --- | --- | --- |
| CC[C@H]1OC(=O)[C@H](C)C(=O)[C@H](C)[C@@H](O[C@@H]2OC(C)CC(N(C)C)C2O)[C@](C)(OC)C[C@@H](C)CN[C@H](C)[C@H]2N(C/C=C/Cn3cc(-c4ccccn4)nn3)C(=O)O[C@]12C (stereo partly drawn) [FSM-70153] | 1 µg/mL (≈ 1.23 µM) | > 32 µg/mL | > 32 µg/mL | 4 µg/mL (≈ 4.93 µM) | 2 µg/mL (≈ 2.46 µM) | 0.5 µg/mL (≈ 0.616 µM) | 2 µg/mL (≈ 2.46 µM) | 0.25 µg/mL (≈ 0.308 µM) | 2 µg/mL (≈ 2.46 µM) | 0.125 µg/mL (≈ 0.154 µM) | 4 µg/mL (≈ 4.93 µM) | > 32 µg/mL | > 32 µg/mL | ≤ 0.0625 µg/mL | 4 µg/mL (≈ 4.93 µM) | 16 µg/mL (≈ 19.7 µM) | – |
| C=CC[C@@]1(OC)C[C@@H](C)CN[C@H](C)[C@H]2N(CCCCn3cc(-c4ccccn4)nn3)C(=O)O[C@]2(C)[C@@H](CC)OC(=O)[C@H](C)C(=O)[C@H](C)[C@H]1O[C@@H]1OC(C)CC(N(C)C)C1O (stereo partly drawn) [FSM-21423] | 16 µg/mL (≈ 19 µM) | > 32 µg/mL | > 32 µg/mL | 32 µg/mL (≈ 38.1 µM) | 16 µg/mL (≈ 19 µM) | – | 16 µg/mL (≈ 19 µM) | – | – | – | > 32 µg/mL | > 32 µg/mL | > 32 µg/mL | – | 32 µg/mL (≈ 38.1 µM) | > 32 µg/mL | MIC H. influenzae (49247) (H. influenzae strains; H. influenzae 49247): 2 µg/mL (≈ 2.38 µM); MIC E. faecalis (29212) (E. faecalis strains): 4 µg/mL (≈ 4.76 µM); MIC K. pneumoniae (10031) (K. pneumoniae strains): 8 µg/mL (≈ 9.52 µM); MIC S. pneumonae (160) (S. pneumoniae strains; S. pneumoniae 160): 0.25 µg/mL (≈ 0.298 µM); MIC S. pneumoniae (49619) (S. pneumoniae strains; S. pneumoniae 49619): 1 µg/mL (≈ 1.19 µM) |
| CC[C@H]1OC(=O)[C@H](C)C(O)[C@H](C)[C@@H](O[C@@H]2OC(C)CC(N(C)C)C2O)[C@](C)(OC)C[C@@H](C)CN(C)[C@H](C)[C@H]2N(CCCCn3cc(-c4cccc(N)c4)nn3)C(=O)O[C@]12C (stereo partly drawn) [FSM-21335] | > 32 µg/mL | > 32 µg/mL | > 32 µg/mL | > 32 µg/mL | 32 µg/mL (≈ 37.9 µM) | 4 µg/mL (≈ 4.74 µM) | 32 µg/mL (≈ 37.9 µM) | 16 µg/mL (≈ 19 µM) | 4 µg/mL (≈ 4.74 µM) | 0.25 µg/mL (≈ 0.296 µM) | > 32 µg/mL | > 32 µg/mL | > 32 µg/mL | 1 µg/mL (≈ 1.18 µM) | 32 µg/mL (≈ 37.9 µM) | > 32 µg/mL | – |
| CC[C@H]1OC(=O)C(C)C(=O)[C@H](C)[C@@H](O[C@@H]2OC(C)CC(N(C)C)C2O)[C@](C)(OC/C=C/c2cnc3ccccc3c2)C[C@@H](C)CN(C)[C@H](C)[C@H]2NC(=O)O[C@@]21C (stereo partly drawn) [FSM-21118] | 1 µg/mL (≈ 1.28 µM) | > 32 µg/mL | > 32 µg/mL | 1 µg/mL (≈ 1.28 µM) | 2 µg/mL (≈ 2.56 µM) | 2 µg/mL (≈ 2.56 µM) | 8 µg/mL (≈ 10.2 µM) | 0.5 µg/mL (≈ 0.64 µM) | 2 µg/mL (≈ 2.56 µM) | ≤ 0.0625 µg/mL | 1 µg/mL (≈ 1.28 µM) | > 32 µg/mL | 32 µg/mL (≈ 41 µM) | 0.125 µg/mL (≈ 0.16 µM) | 8 µg/mL (≈ 10.2 µM) | 32 µg/mL (≈ 41 µM) | – |
| CC[C@H]1OC(=O)[C@H](C)C(=O)[C@H](C)[C@@H](O[C@@H]2OC(C)CC(N(C)C)C2O)[C@](C)(OC)C[C@@H](C)CNC[C@H]2N(CCCCn3cc(-c4cccc(N)c4)nn3)C(=O)O[C@]12C (stereo partly drawn) [FSM-11031] | 2 µg/mL (≈ 2.46 µM) | > 32 µg/mL | > 32 µg/mL | 1 µg/mL (≈ 1.23 µM) | 4 µg/mL (≈ 4.91 µM) | 2 µg/mL (≈ 2.46 µM) | 4 µg/mL (≈ 4.91 µM) | 0.25 µg/mL (≈ 0.307 µM) | 4 µg/mL (≈ 4.91 µM) | 0.25 µg/mL (≈ 0.307 µM) | 1 µg/mL (≈ 1.23 µM) | > 32 µg/mL | > 32 µg/mL | 0.25 µg/mL (≈ 0.307 µM) | 16 µg/mL (≈ 19.7 µM) | 16 µg/mL (≈ 19.7 µM) | – |
| C=CC[C@@]1(OC)C[C@@H](C)CN[C@H](C)[C@H]2N(CCCCn3cc(-c4cccc(N)c4)nn3)C(=O)O[C@]2(C)[C@@H](CC)OC(=O)[C@H](C)C(=O)[C@@H](C)[C@H]1O[C@@H]1OC(C)CC(N(C)C)C1O (stereo in doubt) [FSM-21368] | – | – | – | – | – | – | – | – | – | – | – | – | – | – | – | – | MIC S. aureus (183) (S. aureus strains; S. aureus 183): >32 µg/mL; MIC S. aureus (506) (S. aureus strains; S. aureus 506): >32 µg/mL; MIC S. aureus (1708) (S. aureus strains; S. aureus 1708): 16 µg/mL (≈ 18.7 µM); MIC S. aureus (ATCC 29213) (S. aureus strains; S. aureus ATCC 29213): 8 µg/mL (≈ 9.37 µM); MIC S. aureus (USA300) (S. aureus strains; S. aureus USA300): 8 µg/mL (≈ 9.37 µM); MIC H. influenzae (49247) (H. influenzae strains; H. influenzae 49247): 2 µg/mL (≈ 2.34 µM); MIC H. influenzae (49766) (H. influenzae strains; H. influenzae 49766): 8 µg/mL (≈ 9.37 µM); MIC E. faecalis (29212) (E. faecalis strains): 2 µg/mL (≈ 2.34 µM); MIC K. pneumoniae (10031) (K. pneumoniae strains): 4 µg/mL (≈ 4.68 µM); MIC S. pneumonae (160) (S. pneumoniae strains; S. pneumoniae 160): 0.25 µg/mL (≈ 0.293 µM); MIC S. pneumoniae (1509) (S. pneumoniae strains; S. pneumoniae 1509): 8 µg/mL (≈ 9.37 µM); MIC S. pneumoniae (1533) (S. pneumoniae strains; S. pneumoniae 1533): >32 µg/mL; MIC S. pneumoniae (1537) (S. pneumoniae strains; S. pneumoniae 1537): >32 µg/mL; MIC S. pneumoniae (49619) (S. pneumoniae strains; S. pneumoniae 49619): 1 µg/mL (≈ 1.17 µM); MIC E. coli (ATCC 25922) (E. coli strains; E. coli ATCC 25922): 8 µg/mL (≈ 9.37 µM); MIC A. baumannii (BAA747-1) (A. baumannii strains; A. baumannii BAA747-1): 16 µg/mL (≈ 18.7 µM) |
| CC[C@H]1OC(=O)[C@H](C)C(=O)[C@H](C)[C@@H](O[C@@H]2OC(C)CC(N(C)C)C2O)[C@](C)(OC)C[C@@H](C)CN[C@H](Cc2cccc(Br)c2)[C@H]2N(CCCCn3cc(-c4cccc(N)c4)nn3)C(=O)O[C@]12C (stereo partly drawn) [FSM-60415] | 2 µg/mL (≈ 2.03 µM) | > 32 µg/mL | > 32 µg/mL | 2 µg/mL (≈ 2.03 µM) | 2 µg/mL (≈ 2.03 µM) | 8 µg/mL (≈ 8.14 µM) | 32 µg/mL (≈ 32.6 µM) | 2 µg/mL (≈ 2.03 µM) | > 32 µg/mL | 0.5 µg/mL (≈ 0.509 µM) | 4 µg/mL (≈ 4.07 µM) | 32 µg/mL (≈ 32.6 µM) | 32 µg/mL (≈ 32.6 µM) | 0.5 µg/mL (≈ 0.509 µM) | > 32 µg/mL | > 32 µg/mL | – |
| CC[C@H]1OC(=O)[C@H](C)C(=O)[C@H](C)[C@@H](O[C@@H]2OC(C)CC(N(C)C)C2O)[C@](C)(OC)C[C@@H](C)CCN[C@H](C)[C@H]2N(CCCCn3cc(-c4cccc(N)c4)nn3)C(=O)O[C@]12C (stereo partly drawn) [FSM-21397] | 2 µg/mL (≈ 2.38 µM) | > 32 µg/mL | > 32 µg/mL | 2 µg/mL (≈ 2.38 µM) | 2 µg/mL (≈ 2.38 µM) | 2 µg/mL (≈ 2.38 µM) | 4 µg/mL (≈ 4.75 µM) | 0.5 µg/mL (≈ 0.594 µM) | 4 µg/mL (≈ 4.75 µM) | 0.25 µg/mL (≈ 0.297 µM) | 4 µg/mL (≈ 4.75 µM) | > 32 µg/mL | > 32 µg/mL | 0.125 µg/mL (≈ 0.148 µM) | 16 µg/mL (≈ 19 µM) | 16 µg/mL (≈ 19 µM) | – |
| CC[C@H]1OC(=O)[C@H](C)C(O)[C@H](C)[C@@H](O[C@@H]2OC(C)CC(N(C)C)C2O)[C@](C)(OC)C[C@@H](C)CN[C@H](C)[C@H]2N(CCCCn3cc(-c4cccc(N)c4)nn3)C(=O)O[C@]12C (stereo partly drawn) [FSM-21340] | 16 µg/mL (≈ 19.3 µM) | > 32 µg/mL | > 32 µg/mL | > 32 µg/mL | 16 µg/mL (≈ 19.3 µM) | 1 µg/mL (≈ 1.2 µM) | 4 µg/mL (≈ 4.82 µM) | 8 µg/mL (≈ 9.64 µM) | 2 µg/mL (≈ 2.41 µM) | 0.5 µg/mL (≈ 0.602 µM) | > 32 µg/mL | > 32 µg/mL | > 32 µg/mL | 0.5 µg/mL (≈ 0.602 µM) | 4 µg/mL (≈ 4.82 µM) | 8 µg/mL (≈ 9.64 µM) | – |
